Data: patent US10300071B2, “Compositions and methods for inhibition of mycobacteria” (priority 2014, dated 2019)
In brackets after ≈: the same amount, converted by molar mass. Read-outs that look alike come from different tables or passages of the source.

Tests used:
Mtb AccD6 = Mtb AccD6 (Mycobacterium tuberculosis, UniProt P9WQH5); assay: biochemical; type: biochemical; settings: for IC50: 300 μM malonyl-CoA, inhibitor 10 μM to 2000 μM; for Mtb AccD6 inhibition: preliminary studies of commercially available herbicides
Mtb AccD6, sequence (P9WQH5 whole entry, looked up): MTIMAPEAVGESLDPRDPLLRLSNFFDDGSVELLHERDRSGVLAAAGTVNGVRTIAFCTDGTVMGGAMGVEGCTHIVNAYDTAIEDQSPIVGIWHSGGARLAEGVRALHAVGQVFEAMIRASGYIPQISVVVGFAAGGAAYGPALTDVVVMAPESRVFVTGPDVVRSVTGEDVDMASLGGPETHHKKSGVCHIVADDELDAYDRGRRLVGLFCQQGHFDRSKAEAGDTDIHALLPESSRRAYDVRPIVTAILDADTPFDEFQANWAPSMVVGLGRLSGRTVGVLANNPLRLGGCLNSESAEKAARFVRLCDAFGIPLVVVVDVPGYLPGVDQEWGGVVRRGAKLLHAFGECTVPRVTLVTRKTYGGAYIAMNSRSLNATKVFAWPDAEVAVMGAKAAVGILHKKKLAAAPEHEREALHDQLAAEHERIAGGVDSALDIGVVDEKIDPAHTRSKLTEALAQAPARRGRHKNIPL

Mtb strain mc^2-7000 = assay: microbe, parasite or virus in culture; type: cell-based, Mycobacterium tuberculosis; settings: for MIC: 6 days incubation at 37° C., resazurin, read on the 7th day; for whole Mycobacterium tuberculosis cell inhibition: preliminary studies of commercially available herbicides
[1] = Mycobacterium tuberculosis, 144 h, read-out: MIC
[2] = 20 uM, pH 8.0, read-out: inhibition at 20 uM- pH 8.0
[3] = 20 uM, pH 8.5, read-out: inhibition at 20 uM- pH 8.5

Compound	IC50 (Mtb AccD6; read-out: IC50)	MIC (Mtb strain mc^2-7000; [1])	also measured
O=C(COc1ccc(Oc2cnc3cc(Cl)ccc3n2)cc1)N1CCNCC1 [NZ-277, 2-{4-[(6-chloroquinoxalin-2-yl)oxy]phenoxy}-1-(piperazin-1-yl)ethan-1-one]	5600 nM	12.5 µM (≈ 4.99 µg/mL)	
Cn1nnnc1COc1ccc(Oc2cnc3cc(Cl)ccc3n2)cc1 [NZ-270, 6-chloro-2-{4-[(1-methyl-1H-1,2,3,4-tetrazol-5-yl)methoxy]phenoxy}quinoxaline]	9700 nM	> 50 µM	
COC(=O)c1ccc(Oc2nc3ccc(Cl)cc3s2)cc1 [NZ-285, methyl 4-[(6-chloro-1,3-benzothiazol-2-yl)oxy]benzoate]		12 µM (≈ 3.84 µg/mL)	IC50 (Mtb AccD6): Not Active
CNC(=O)Cc1ccc(Oc2nc3cc(F)c(F)cc3s2)cc1F [NZ-411, 2-{4-[(5,6-difluoro-1,3-benzothiazol-2-yl)oxy]-2-fluorophenyl}-N-methylacetamide]	240 nM		
CCOC(=O)[C@@H](C)Oc1ccc(Oc2nc3ccc([N+](=O)[O-])cc3s2)cc1 [NZ-260, ethyl (2R)-2-{4-[(6-nitro-1,3-benzothiazol-2-yl)oxy]phenoxy}propanoate]		0.19 to 2.3 µM (≈ 0.0738 to 0.893 µg/mL)	
CN1CCN(C(=O)COc2ccc(Oc3cnc4cc(Cl)ccc4n3)cc2)CC1 [NZ-278, 2-{4-[(6-chloroquinoxalin-2-yl)oxy]phenoxy}-1-(4-methylpiperazin-1-yl)ethan-1-one]	1100 nM	3.1 µM (≈ 1.28 µg/mL)	
Clc1ccc2nc(Oc3ccc(OCc4ncco4)cc3)cnc2c1 [NZ-271, 6-chloro-2-[4-(1,3-oxazol-2-ylmethoxy)phenoxy]quinoxaline]	11600 nM	> 50 µM	
CONC(=O)CN1CCC(Oc2nc3ccc(Cl)cc3s2)CC1 [WUXI-N4, 2-{4-[(6-chloro-1,3-benzothiazol-2-yl)oxy]piperidin-1-yl}-N-methoxyacetamide]			inhibition at 20 uM (Mtb AccD6; 20 uM): No inhibition at 20 uM
CC(C)(C)OC(=O)Nc1ccc(Oc2nc3ccc(F)cc3s2)cc1 [NZ-412, terl-butyl N-{4-[(6-fluoro-1,3-benzothiazol-2-yl)oxy]phenyl}carbamate]			inhibition at 20 µM (Mtb AccD6; read-out: inhibition at 20 uM): 17%
CNC(=O)Cc1ccc(Oc2nc3ccc(F)cc3s2)cc1F [NZ-410, 2-{2-fluoro-4-[(6-fluoro-1,3-benzothiazol-2-yl)oxy]phenyl}-N-methylacetamide]	380 nM		
COC(=O)Cc1ccc(Oc2nc3ccc(Cl)cc3o2)cc1 [NZ-302, methyl 2-{4-[(6-chloro-1,3-benzoxazol-2-yl)oxy]phenyl}acetate]		3 µM	inhibition at 20 µM (Mtb AccD6; read-out: inhibition at 20 uM): 50%
CCCC(=NOCC)C1=C(O)CC(C2CCCSC2)CC1=O (stereo not shown) [cycloxydim, reference compound]			Mtb AccD6 inhibition (Mtb AccD6): only haloxyfop exhibited Mtb AccD6 inhibition; whole Mycobacterium tuberculosis cell inhibition (Mtb strain mc^2-7000): none exhibited whole Mycobacterium tuberculosis cell inhibition
O=C(O)CCc1ccc(Oc2nc3ccc(Cl)cc3s2)cc1 [NZ-282, 3-{4-[(6-chloro-1,3-benzothiazol-2-yl)oxy]phenyl}propanoic acid]			inhibition at 20 µM (Mtb AccD6; read-out: inhibition at 20 uM): 40%; MIC (Mtb strain mc^2-7000): Not Active
C[C@@H](Oc1ccc(Oc2nc3ccccc3s2)cc1)C(=O)O [NZ-254, (2R)-2-[4-(1,3-benzothiazol-2-yloxy)phenoxy]propanoic acid]	> 15000 nM		
CC(Oc1ccc(Oc2ncc(C(F)(F)F)cc2Cl)cc1)C(=O)O (racemic) [haloxyfop, (RS)-2-{4-[3-chloro-5-(trifluoromethyl)-2-pyridyloxy]phenoxy}propionic acid, reference compound]			whole Mycobacterium tuberculosis cell inhibition (Mtb strain mc^2-7000): none exhibited whole Mycobacterium tuberculosis cell inhibition
NCCC(=O)Nc1ccc(Oc2nc3ccc(F)cc3s2)cc1 [NZ-416, 3-amino-N-{4-[(6-fluoro-1,3-benzothiazol-2-yl)oxy]phenyl}propanamide]			inhibition at 20 µM (Mtb AccD6; read-out: inhibition at 20 uM): 20%
CC(C)NC(=O)Cc1ccc(Oc2nc3cc(F)c(F)cc3s2)cc1O [NZ-407, 2-{4-[(5,6-difluoro-1,3-benzothiazol-2-yl)oxy]-2-hydroxyphenyl}-N-(propan-2-yl)acetamide]	110 nM	11.7 µM (≈ 4.43 µg/mL)	
O=C(O)c1ccc(Oc2nc3ccc(Cl)cc3s2)cc1 [NZ-288, 4-[(6-chloro-1,3-benzothiazol-2-yl)oxy]benzoic acid]	12000 nM	25 µM (≈ 7.64 µg/mL)	
CC(Oc1ccc(Oc2ccc(Cl)cc2Cl)cc1)C(=O)O (stereo not shown) [diclofop, reference compound]			Mtb AccD6 inhibition (Mtb AccD6): only haloxyfop exhibited Mtb AccD6 inhibition; whole Mycobacterium tuberculosis cell inhibition (Mtb strain mc^2-7000): none exhibited whole Mycobacterium tuberculosis cell inhibition
CC(O)COc1ccc(Oc2cnc3cc(Cl)ccc3n2)cc1 (stereo not shown) [NZ-264, 1-{4-[(6-chloroquinoxalin-2-yl)oxy]phenoxy}propan-2-ol]	3400 nM	> 12.5 µM	
CC(C)NC(=O)Cc1ccc(Oc2nc3ccc(F)cc3s2)cc1O [NZ-405, 2-{4-[(6-fluoro-1,3-benzothiazol-2-yl)oxy]-2-hydroxyphenyl}-N-(propan-2-yl)acetamide]	150 nM	17.5 µM (≈ 6.31 µg/mL)	
CN(O)C(=O)COc1ccc(Oc2cnc3cc(Cl)ccc3n2)cc1 [NZ-279, 2-{4-[(6-chloroquinoxalin-2-yl)oxy]phenoxy}-N-hydroxy-N-methylacetamide]	800 nM	> 50 µM	

Compound	IC50 (Mtb AccD6; read-out: IC50)	MIC (Mtb strain mc^2-7000; [1])	also measured
NCC(=O)Nc1ccc(Oc2nc3ccc(F)cc3s2)cc1 [NZ-417, 2-amino-N-{4-[(6-fluoro-1,3-benzothiazol-2-yl)oxy]phenyl}acetamide]			inhibition at 20 µM (Mtb AccD6; read-out: inhibition at 20 uM): 10%
C[C@@H](Oc1ccc(Oc2nc3ccc(F)cc3s2)cc1)C(=O)O [NZ-255, (2R)-2-{4-[(6-fluoro-1,3-benzothiazol-2-yl)oxy]phenoxy}propanoic acid]	1200 nM		
C=CCO/N=C(\CCC)C1=C(O)C(C(=O)OC)C(C)(C)CC1=O (stereo not shown) [alloxydim, reference compound]			Mtb AccD6 inhibition (Mtb AccD6): only haloxyfop exhibited Mtb AccD6 inhibition; whole Mycobacterium tuberculosis cell inhibition (Mtb strain mc^2-7000): none exhibited whole Mycobacterium tuberculosis cell inhibition
CC(Oc1ccc(Oc2ccc(C(F)(F)F)cn2)cc1)C(=O)O (stereo not shown) [fluazifop, reference compound]			Mtb AccD6 inhibition (Mtb AccD6): only haloxyfop exhibited Mtb AccD6 inhibition; whole Mycobacterium tuberculosis cell inhibition (Mtb strain mc^2-7000): none exhibited whole Mycobacterium tuberculosis cell inhibition
Nc1ccc(Oc2nc3ccc(F)cc3s2)cc1 [NZ-413, 4-[(6-fluoro-1,3-benzothiazol-2-yl)oxy]aniline]	14000 nM		
CC(C)NC(=O)Cc1ccc(Oc2nc3cc(F)c(F)cc3s2)cc1 [NZ-403, 2-{4-[(5,6-difluoro-1,3-benzothiazol-2-yl)oxy]phenyl}-N-(propan-2-yl)acetamide]	160 nM	1.24 µM (≈ 0.449 µg/mL)	
COC(=O)COc1ccc(Oc2cnc3cc(Cl)ccc3n2)cc1 [NZ-256, methyl 2-{4-[(6-chloroquinoxalin-2-yl)oxy]phenoxy}acetate]		1.5 µM	
Clc1ccc2nc(Oc3ccccc3)sc2c1 [NZ-292, 6-chloro-2-phenoxy-1,3-benzothiazole]		12 µM (≈ 3.14 µg/mL)	inhibition at 20 µM (Mtb AccD6; read-out: inhibition at 20 uM): 42%
O=C(COc1ccc(Oc2cnc3cc(Cl)ccc3n2)cc1)N1CCOCC1 [NZ-266, 2-{4-[(6-chloroquinoxalin-2-yl)oxy]phenoxy}-1-(morpholin-4-yl)ethan-1-one]	990 nM	> 12.5 µM	
CC(C)NC(=O)Nc1ccc(Oc2nc3ccc(Cl)cc3s2)nn1 [WuXi-N7, 1-{6-[(6-chloro-1,3-benzothiazol-2-yl)oxy]pyridazin-3-yl}-3-(propan-2-yl)urea]			inhibition at 20 µM (Mtb AccD6; read-out: inhibition at 20 uM): 18%
C[C@@H](Oc1ccc(Oc2nc3ccc(Cl)cc3s2)cc1)C(=O)O [NZ-247, (2R)-2-{4-[(6-chloro-1,3-benzothiazol-2-yl)oxy]phenoxy}propanoic acid]	2500 nM		
CCOC(=O)[C@@H](C)Oc1ccc(Oc2nc3ccc(Cl)cc3s2)cc1 [NZ-246, ethyl (2R)-2-{4-[(6-chloro-1,3-benzothiazol-2-yl)oxy]phenoxy}propanoate]		3 µM (≈ 1.13 µg/mL)	
C[C@@H](Oc1ccc(Oc2nc3ccc(Br)cc3s2)cc1)C(=O)O [NZ-253, (2R)-2-{4-[(6-bromo-1,3-benzothiazol-2-yl)oxy]phenoxy}propanoic acid]	> 15000 nM		
C[C@@H](Oc1ccc(Oc2nc3ccc([N+](=O)[O-])cc3s2)cc1)C(=O)O [NZ-261, (2R)-2-{4-[(6-nitro-1,3-benzothiazol-2-yl)oxy]phenoxy}propanoic acid]	1800 nM		
CC(C)NC(=O)Nc1ccc(Oc2nc3ccc(Cl)cc3s2)cn1 [WuXi-N8, 1-{5-[(6-chloro-1,3-benzothiazol-2-yl)oxy]pyridin-2-yl}-3-(propan-2-yl)urea]			inhibition at 20 µM (Mtb AccD6; [2]): 40%; inhibition at 20 µM (Mtb AccD6; [3]): 47%
CN1CCN(C(=O)Cc2ccc(Oc3nc4cc(F)c(F)cc4s3)cc2)CC1 [NZ-409, 2-{4-[(5,6-difluoro-1,3-benzothiazol-2-yl)oxy]phenyl}-1-(4-methylpiperazin-1-yl)ethan-1-one]	660 nM		
CCOC(=O)[C@@H](C)Oc1ccc(Oc2nc3ccc(Br)cc3s2)cc1 [NZ-250, ethyl (2R)-2-{4-[(6-bromo-1,3-benzothiazol-2-yl)oxy]phenoxy}propanoate]		3.12 µM (≈ 1.32 µg/mL)	
CONC(=O)CCN1CCC(Oc2nc3ccc(Cl)cc3s2)CC1 [WUXI-N5, 3-{4-[(6-chloro-1,3-benzothiazol-2-yl)oxy]piperidin-1-yl}-N-methoxypropanamide]			inhibition at 20 uM (Mtb AccD6; 20 uM): No inhibition at 20 uM
CC(C)NC(=O)Nc1ccc(Oc2nc3ccc(Cl)cc3s2)nc1 [WuXi-N6, 1-{6-[(6-chloro-1,3-benzothiazol-2-yl)oxy]pyridin-3-yl}-3-(propan-2-yl)urea]			inhibition at 20 µM (Mtb AccD6; [2]): 11%; inhibition at 20 µM (Mtb AccD6; [3]): 17%
CC(C)(C)OC(=O)NCC(=O)Nc1ccc(Oc2nc3ccc(F)cc3s2)cc1 [NZ-415, tert-butyl N-[({4-[(6-fluoro-1,3-benzothiazol-2-yl)oxy]phenyl}carbamoyl)methyl]carbamate]	20000 nM		
O=C(O)COc1ccc(Oc2cnc3cc(Cl)ccc3n2)cc1 [NZ-257, 2-{4-[(6-chloroquinoxalin-2-yl)oxy]phenoxy}acetic acid]	1500 to 1900 nM		
